Test results taken from the supplement of paper PMC9938120.

What was measured:
Experiment in all cases: drug sensitivity score (DSS3, normalised partial AUC of % inhibition dose-response) (DSS (score)); higher = more sensitive (stronger inhibition of viability); extreme values may be limits of the assay
Settings in all cases: 72 h; library: FO5A; assay format: 2D, 384-well, CellTiter-Glo
FMOC02_1 = system: FMOC02_1 (patient-derived low-grade serous ovarian cancer cells)
How it was run: (§1)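 Patient-derived ovarian cancer cells (early passage, under 10) were dispensed onto 384-well flat clear-bottom plates pre-plated with compounds at five concentrations covering a 10,000-fold range. Plates were incubated 72 h at 37 °C, 5% CO2, and viability was read with CellTiter-Glo. Data were processed in Breeze. The drug sensitivity score (DSS3) is a partial area under the percent-inhibition dose-response curve, divided by the log of the upper asymptote; higher means more sensitive.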

FMOC02_2 = system: FMOC02_2 (patient-derived low-grade serous ovarian cancer cells)
How it was run: as §1

FMOC02_3 = system: FMOC02_3 (patient-derived low-grade serous ovarian cancer cells)
How it was run: as §1

FMOC03 = system: FMOC03 (patient-derived mucinous ovarian cancer cells)
How it was run: as §1

FMOC04 = system: FMOC04 (patient-derived high-grade serous ovarian cancer cells)
How it was run: as §1

FMOC06 = system: FMOC06 (patient-derived mucinous ovarian cancer cells)
How it was run: as §1

FMOC09 = system: FMOC09 (patient-derived high-grade serous ovarian cancer cells)
How it was run: as §1

FMOC11 = system: FMOC11 (patient-derived high-grade serous ovarian cancer cells)
How it was run: as §1

FMOC14 = system: FMOC14 (patient-derived high-grade serous ovarian cancer cells)
How it was run: as §1

FMOC17 = system: FMOC17 (patient-derived low-grade serous ovarian cancer cells)
How it was run: as §1

FMOC22 = system: FMOC22 (patient-derived mucinous ovarian cancer cells)
How it was run: as §1

FMOC24 = system: FMOC24 (patient-derived high-grade serous ovarian cancer cells)
How it was run: as §1

FMOC25_2 = system: FMOC25_2 (patient-derived low-grade serous ovarian cancer cells)
How it was run: as §1

FMOC27 = system: FMOC27 (patient-derived low-grade serous ovarian cancer cells)
How it was run: as §1

FMOC28 = system: FMOC28 (patient-derived low-grade serous ovarian cancer cells)
How it was run: as §1

| Structure (SMILES) | drug sensitivity score (FMOC02_1) | drug sensitivity score (FMOC02_2) | drug sensitivity score (FMOC02_3) | drug sensitivity score (FMOC03) | drug sensitivity score (FMOC04) | drug sensitivity score (FMOC06) | drug sensitivity score (FMOC09) | drug sensitivity score (FMOC11) | drug sensitivity score (FMOC14) | drug sensitivity score (FMOC17) | drug sensitivity score (FMOC22) | drug sensitivity score (FMOC24) | drug sensitivity score (FMOC25_2) | drug sensitivity score (FMOC27) | drug sensitivity score (FMOC28) |
| --- | --- | --- | --- | --- | --- | --- | --- | --- | --- | --- | --- | --- | --- | --- | --- |
| COc1cc2ncnc(Nc3cccc(Cl)c3F)c2cc1OC(=O)N1CCN(C)C[C@H]1C [AZD3759] | 6.4 | 5.4 | 5.9 | 4.8 | 0.25 | 0.2 | 2.8 | 3.3 | 0.5 | 7 | 0 | 0 | 4.2 | 2.8 | 5 |
| CCOCc1nc2c(N)nc3ccccc3c2n1CC(C)(C)O [Resiquimod] | 0 | 0 | 0 | 0 | 0 | 0.6 | 0.2 | 0 | 0 | 0 | 0 | 1.5 | 0 | 0 | 0 |
| CC[C@@](C)(Nc1ccnc(-c2c[nH]c3ncccc23)n1)C(=O)NCC(F)(F)F [Decernotinib] | 3.3 | 1.7 | 0.4 | 0 | 0 | 2.6 | 0 | 0 | 0 | 0 | 0 | 0 | 0 | 0 | 0 |
| Nc1cc(COc2c(Cl)cc(C[C@H](N)C(=O)O)cc2Cl)c2oc(-c3ccccc3)nc2c1 [JPH203] | 0 | 0 | 0 | 0 | 0 | 0.4 | 0 | 0 | 0 | 0 | 0 | 0 | 0 | 0 | 0 |
| C[C@H]1C[C@@H](n2c(Nc3ccc(OC(F)(F)F)cc3)nc3cc(CCC(=O)O)ccc32)CC(C)(C)C1 | 0 | 0 | 0.3 | 0 | 0 | 0 | 0 | 0.6 | 0 | 0 | 1.1 | 4.1 | 0 | 0 | 0 |
| CNC(=O)c1ccc(-c2cnc3ncc(Cc4ccc5ncccc5c4)n3n2)cc1F [Capmatinib] | 0 | 0 | 0 | 0 | 0 | 0 | 0 | 0 | 0.1 | 0 | 0 | 0 | 0 | 0.5 | 0 |
| CC(C)NC(=O)COc1cccc(-c2nc(Nc3ccc4[nH]ncc4c3)c3ccccc3n2)c1 [KD025] | 5.4 | 1.6 | 6.2 | 0 | 3.55 | 1.1 | 0.2 | 1.6 | 2.7 | 4.5 | 0 | 10.4 | 4.4 | 0 | 2.4 |
| COCCOc1cnc2ccn([C@H](C)c3nnc4c(F)cc(-c5cnn(C)c5)cn34)c(=O)c2c1 [AMG-337] | 0 | 0 | 0 | 0 | 0 | 0 | 0 | 0 | 0 | 0 | 0 | 0 | 0 | 0 | 3.4 |
| CC1(C)C(C(=O)Nc2ccc(S(=O)(=O)c3ccc(NC(=O)C4C(C)(C)C4(C)C)cc3)cc2)C1(C)C [BRD7116] | 0 | 0.1 | 3.7 | 0.5 | 0 | 0.8 | 0 | 2.2 | 0 | 1.4 | 0 | 1.5 | 0 | 0 | 1 |
| CN1CCN(C(=O)c2ccc3cc(CCNc4ncnc5ccc(C#N)cc45)ccc3c2)CC1 [Senexin B] | 0.6 | 1.3 | 2.9 | 1.5 | 0 | 1 | 0 | 0 | 0 | 0.6 | 0 | 0.2 | 1.2 | 0 | 0 |
| CN(C(=O)c1ccc(F)cc1C(F)(F)F)C1CCN(c2nnc(-c3ccnn3C)c3ccccc23)CC1 [Taladegib] | 0 | 0 | 0 | 0 | 0 | 0 | 0 | 0 | 0 | 0 | 0 | 0 | 0 | 0 | 0 |
| CCCCOc1nc(N)c2c(n1)N(Cc1cccc(CN3CCCC3)c1)CC(=O)N2 [Vesatolimod] | 0 | 0 | 0 | 0 | 0 | 0 | 0.2 | 0 | 0 | 0 | 0 | 0 | 0.1 | 0 | 0 |
